Reference: patent US6737383B1, “Herbicidal oxadiazolidines” (priority 1999, dated 2004)

How the values were obtained:
soybean = assay: Test B pre/postemergence soybean; format: in vivo, Glycine max
Procedure, shortened: (§1)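 Response is a visual 0-to-10 score relative to untreated plants, where 0 means no effect and 10 means complete control, taken twelve to sixteen days after application. Treatments went onto soil at planting and onto foliage of 1- to 4-leaf plants, using a surfactant-containing non-phytotoxic solvent.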

wild oat = assay: Test B pre/postemergence wild oat; format: in vivo, Avena fatua
Procedure, shortened: as §1

rape = assay: Test B pre/postemergence rape; format: in vivo, Brassica napus
Procedure, shortened: as §1

velvetleaf = assay: Test B pre/postemergence velvetleaf; format: in vivo, Abutilon theophrasti
Procedure, shortened: as §1

pigweed = assay: Test B pre/postemergence pigweed; format: in vivo, Amaranthus retroflexus
Procedure, shortened: as §1

smallflower flatsedge = assay: Test B flood test smallflower flatsedge; format: in vivo, Cyperus difformis
Procedure, shortened: (§2)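 Each value is a visual injury score relative to controls, with 10 meaning complete control and 0 no effect. Evaluation took place twelve to sixteen days after the 2-leaf-stage plants were treated and kept in the greenhouse.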

corn = assay: Test B pre/postemergence corn; format: in vivo, Zea mays
Procedure, shortened: as §1

cocklebur = assay: Test B pre/postemergence cocklebur; format: in vivo, Xanthium strumarium
Procedure, shortened: as §1

bedstraw = assay: Test B pre/postemergence bedstraw; format: in vivo, Galium aparine
Procedure, shortened: as §1

morningglory = assay: Test B pre/postemergence morningglory; format: in vivo, Ipomoea hederacea
Procedure, shortened: as §1

rice = assay: Test B flood test rice; format: in vivo, Oryza sativa
Procedure, shortened: as §2

giant foxtail = assay: Test B pre/postemergence giant foxtail; format: in vivo, Setaria faberii
Procedure, shortened: as §1

blackgrass = assay: Test B pre/postemergence blackgrass; format: in vivo, Alopecurus myosuroides
Procedure, shortened: as §1

sugar beet = assay: Test B pre/postemergence sugar beet; format: in vivo, Beta vulgaris
Procedure, shortened: as §1

wheat = assay: Test B pre/postemergence wheat; format: in vivo, Triticum aestivum
Procedure, shortened: as §1

surinam grass = assay: Test B pre/postemergence surinam grass; format: in vivo, Brachiaria decumbens
Procedure, shortened: as §1

[1] = Postemergence, Rate 250 g/ha, scale 0 to 10, 0 no effect, 10 complete control
[2] = Postemergence, Rate 1000 g/ha, scale 0 to 10 (0 no effect, 10 complete control)
[3] = Preemergence, Rate 125 g/ha, scale 0 to 10 (0 no effect, 10 complete control)
[4] = Preemergence, Rate 250 g/ha, scale of 0 to 10 where 0 is no effect and 10 is complete control
[5] = Preemergence, Rate 500 g/ha, scale 0 (no effect) to 10 (complete control)
[6] = Rate 125 g/ha, Postemergence, scale 0 to 10, 0 no effect, 10 complete control
[7] = Rate 1000 g/ha, Preemergence, scale 0 to 10 (0 no effect, 10 complete control)
[8] = Rate 500 g/ha, Postemergence, 0 to 10 scale (0 no effect, 10 complete control)
[9] = Rate 125 g/ha, Postemergence section (flood test species), scale 0 to 10, 0 no effect, 10 complete control
[10] = flood test, listed under Postemergence, Rate 250 g/ha, scale 0 to 10, 0 no effect, 10 complete control

SMILES: CCN(CC)C(=O)n1oc(=O)n(-c2ccc(OC(F)(F)F)cc2)c1=O [Compound 12]
- Soybean plant response rating (soybean; [1]): 0
- Soybean plant response rating (soybean; [2]): 1
- Plant response rating, Soybean (soybean; [3]): 0
- Plant response rating, Soybean (soybean; [4]): 0
- Soybean plant response rating (soybean; [5]): 0
- Soybean plant response rating (soybean; [6]): 0
- Plant response rating, Soybean (soybean; [7]): 0
- Wild oats plant response rating (wild oat; [1]): 0
- Wild oats plant response rating (wild oat; [2]): 0
- Plant response rating, Wild oats (wild oat; [3]): 0
- Plant response rating, Wild oats (wild oat; [4]): 0
- Wild oats plant response rating (wild oat; [5]): 0
- Wild oats plant response rating (wild oat; [6]): 0
- Plant response rating, Wild oats (wild oat; [7]): 0
- Rape plant response rating (rape; [1]): 0
- Rape plant response rating (rape; [2]): 0
- Plant response rating, Rape (rape; [3]): 0
- Plant response rating, Rape (rape; [4]): 0
- Rape plant response rating (rape; [5]): 0
- Rape plant response rating (rape; [6]): 0
- Rape plant response rating (rape; [8]): 0
- Plant response rating, Rape (rape; [7]): 0
- Velvetleaf plant response rating (velvetleaf; [1]): 0
- Velvetleaf plant response rating (velvetleaf; [2]): 0
- Plant response rating, Velvetleaf (velvetleaf; [3]): 0
- Plant response rating, Velvetleaf (velvetleaf; [4]): 0
- Velvetleaf plant response rating (velvetleaf; [5]): 0
- Velvetleaf plant response rating (velvetleaf; [6]): 0
- Plant response rating, Velvetleaf (velvetleaf; [7]): 0
- Redroot pigweed plant response rating (pigweed; [1]): 0
- Redroot pigweed plant response rating (pigweed; [2]): 0
- Plant response rating, Redroot pigweed (pigweed; [3]): 0
- Plant response rating, Redroot pigweed (pigweed; [4]): 0
- Redroot pigweed plant response rating (pigweed; [5]): 0
- Redroot pigweed plant response rating (pigweed; [6]): 0
- Redroot pigweed plant response rating (pigweed; [8]): 0
- Plant response rating, Redroot pigweed (pigweed; [7]): 0
- S. Flatsedge plant response rating (smallflower flatsedge; [2]): 0
- S. Flatsedge plant response rating (smallflower flatsedge; [9]): 0
- S. Flatsedge plant response rating (smallflower flatsedge; [10]): 0
- Corn plant response rating (corn; [1]): 0
- Corn plant response rating (corn; [2]): 0
- Plant response rating, Corn (corn; [3]): 0
- Plant response rating, Corn (corn; [4]): 0
- Corn plant response rating (corn; [5]): 0
- Corn plant response rating (corn; [6]): 0
- Corn plant response rating (corn; [8]): 0
- Plant response rating, Corn (corn; [7]): 0
- Cocklebur plant response rating (cocklebur; [1]): 0
- Cocklebur plant response rating (cocklebur; [2]): 0
- Plant response rating, Cocklebur (cocklebur; [3]): 0
- Plant response rating, Cocklebur (cocklebur; [4]): 0
- Cocklebur plant response rating (cocklebur; [5]): 0
- Cocklebur plant response rating (cocklebur; [6]): 0
- Cocklebur plant response rating (cocklebur; [8]): 0
- Plant response rating, Cocklebur (cocklebur; [7]): 0
- Bedstraw plant response rating (bedstraw; [1]): 0
- Bedstraw plant response rating (bedstraw; [2]): 0
- Plant response rating, Bedstraw (bedstraw; [3]): 0
- Plant response rating, Bedstraw (bedstraw; [4]): 0
- Bedstraw plant response rating (bedstraw; [5]): 0
- Bedstraw plant response rating (bedstraw; [6]): 0
- Bedstraw plant response rating (bedstraw; [8]): 0
- Plant response rating, Bedstraw (bedstraw; [7]): 0
- Morningglory plant response rating (morningglory; [1]): 0
- Morningglory plant response rating (morningglory; [2]): 0
- Plant response rating, Morningglory (morningglory; [3]): 0
- Plant response rating, Morningglory (morningglory; [4]): 0
- Morningglory plant response rating (morningglory; [5]): 0
- Morningglory plant response rating (morningglory; [6]): 0
- Morningglory plant response rating (morningglory; [8]): 0
- Plant response rating, Morningglory (morningglory; [7]): 0
- Rice plant response rating (rice; [2]): 0
- Rice plant response rating (rice; [9]): 0
- Rice plant response rating (rice; Rate 500 g/ha, Postemergence section of Table B, 0 to 10 scale (0 no effect, 10 complete control)): 0
- Rice plant response rating (rice; [10]): 0
- Giant foxtail plant response rating (giant foxtail; [1]): 0
- Giant foxtail plant response rating (giant foxtail; [2]): 0
- Plant response rating, Giant foxtail (giant foxtail; [3]): 0
- Plant response rating, Giant foxtail (giant foxtail; [4]): 0
- Giant foxtail plant response rating (giant foxtail; [5]): 2
- Giant foxtail plant response rating (giant foxtail; [6]): 0
- Giant foxtail plant response rating (giant foxtail; [8]): 0
- Plant response rating, Giant foxtail (giant foxtail; [7]): 8
- Blackgrass plant response rating (blackgrass; [1]): 0
- Blackgrass plant response rating (blackgrass; [2]): 0
- Plant response rating, Blackgrass (blackgrass; [3]): 0
- Plant response rating, Blackgrass (blackgrass; [4]): 0
- Blackgrass plant response rating (blackgrass; [5]): 2
- Blackgrass plant response rating (blackgrass; [6]): 0
- Blackgrass plant response rating (blackgrass; [8]): 0
- Plant response rating, Blackgrass (blackgrass; [7]): 4
- Sugarbeets plant response rating (sugar beet; [1]): 0
- Sugarbeets plant response rating (sugar beet; [2]): 0
- Plant response rating, Sugarbeets (sugar beet; [3]): 0
- Plant response rating, Sugarbeets (sugar beet; [4]): 0
- Sugarbeets plant response rating (sugar beet; [5]): 0
- Sugarbeets plant response rating (sugar beet; [6]): 0
- Plant response rating, Sugarbeets (sugar beet; [7]): 0
- Wheat plant response rating (wheat; [1]): 0
- Wheat plant response rating (wheat; [2]): 0
- Plant response rating, Wheat (wheat; [3]): 0
- Plant response rating, Wheat (wheat; [4]): 0
- Wheat plant response rating (wheat; [5]): 0
- Wheat plant response rating (wheat; [6]): 0
- Plant response rating, Wheat (wheat; [7]): 0
- B. signalgrass plant response rating (surinam grass; [1]): 0
- B. signalgrass plant response rating (surinam grass; [2]): 0
- Plant response rating, B. signalgrass (surinam grass; [3]): 0
- Plant response rating, B. signalgrass (surinam grass; [4]): 0
- B. signalgrass plant response rating (surinam grass; [5]): 0
- B. signalgrass plant response rating (surinam grass; [6]): 0
- B. signalgrass plant response rating (surinam grass; [8]): 0
- Plant response rating, B. signalgrass (surinam grass; [7]): 6
